In patent publication US7335776B2, “Remedies for depression containing EP1 antagonist as the active ingredient” (Ono Pharmaceutical Co., Ltd., priority 2002, dated 2008):

Columns and labels:
male ddy mice = test: Tail-suspension test in mice; type: in vivo; settings: for Inhibition (%): inhibition of immobility vs. vehicle; for Inhibition (%) / Immobility time: 10 mg/kg orally 1 hour before measurement, ten animals per group; for Immobility time / Immobility time as compared with that in the vehicle treated group: tail suspension; for Immobility time: immobility time for 10 minutes; for Immobility time as compared with that in the vehicle treated group: rate of inhibition statistically significant
Description: It was confirmed by the following experiments that the compounds of formula of (IA)-(IK) could be useful for the treatment of depression. The following paper can be referred to about a tail-suspension test and its testing system in mice. • 1) Psychopharmacology (1985) 85: 367-370 • 2) Prog. Neuro-Psychopharmacol. & Biol. Psychiat. 1987 Vol. 11, 659-671 (1) Tail-Suspension Test in Mice
The test compound (10 mg/kg animal body weight) was administered orally to male ddy mice weighing around 30 g 1 hour before the beginning of measurement. The mice were suspended by their tail on the hook of Tail Suspension TEST System (Neuroscience, Inc., Model NS-TST01-SS2) using adhesive tape. The subsequent immobility time for 10 minutes was measured. If the mice have none of administration, they get about 300 seconds as an immobility time in this experiment. Generally, the medicine having an anti-depressive action shortens this immobility time.
In addition, in any case, ten animals were used for each group.

male SD (IGS) rat = test: Forced swim test in rats; type: in vivo; settings: for Immobility time / Immobility time as compared with that in the vehicle treated group: forced swim; for Immobility time: 5 minutes observation on 2nd day; for Immobility time / Inhibition (%): test compound orally 5 mL/kg (desipramine intraperitoneally 2 mL/kg) after 1st examination and 1 hour before 2nd, twelve animals per group; for Immobility time as compared with that in the vehicle treated group: rate of inhibition statistically significant; for Inhibition (%): inhibition of immobility vs. vehicle
Description: The seven-week old male SD (IGS) rat freely fed was solely put into the forced swimming equipment (the cylinder (Neuroscience, Inc.) of diameter of inner 19 cm, and height 40 cm, depth-sounding 17 cm, water temperature of 23±1° C.) manufactured with the transparent acrylics board, and let it swim for 15 minutes. The rat was immediately dried after the end of trial and was returned to the home cage. […] In this time, the behavior of rat is distinguished by immobile state, struggling, submerging and swimming. The immobility time, period that rats were floating on the water by taking their head outside of the water without stroking by both legs, were measured. In addition, the water in equipment was exchanged for every trial. Moreover, one trial was conducted for each animal.
The test compound was administered orally by 5 mL/kg dosage immediately after the end of the examination on the 1st, and 1 hour before the examination on the 2nd. And, the positive control compound (desipramine; […]) was similarly administered intraperitoneally by 2 mL/kg dosage immediately after the end of the examination on the 1st, and 1 hour before the examination on the 2nd.
In addition, in any case, twelve animals were used for each group.

[1] = Toxicity (LD50 by oral administration to mouse); settings: in vivo
Description: The toxicity of the compounds of the present invention is very low and therefore, it is confirmed that these compounds are safe for use as medicine. For example, LD50 values of the compound A and B of the present invention by oral administration to mouse are 2000 mg/kg and over.

Question: With `CC(C)CN(c1ccc(C(F)(F)F)cc1OCc1ccc(C=CC(=O)O)cc1)S(=O)(=O)c1ccco1` [Compound C, 4-[2-(N-isobutyl-2-furanylsulfonylamino)-5-trifluoromethylphenoxymethyl]cinnamic acid] as the molecule, how does the “Inhibition (%)” value (male ddy mice) read?
Answer: 23 ± 7 %

Question: What about the “Immobility time” value (male ddy mice) of the same molecule?
Answer: 212 ± 20 s

Question: And the “Immobility time as compared with that in the vehicle treated group” value (from here on “Immobility time as compared with that”) (male ddy mice)?
Answer: shortened

Question: With `Cc1ccc(S(=O)(=O)N(c2ccc(C(F)(F)F)cc2OCc2ccc(C(=O)O)cc2)C(C)C)o1` [Compound B, 4-[2-[N-isopropyl-N-(5-methyl-2-furylsulfonyl)amino]-5-trifluoromethylphenoxymethyl]benzoic acid] as the molecule, how does the “Inhibition (%)” value (male ddy mice) read?
Answer: 35 ± 8 %

Question: What about the “Immobility time” value (male ddy mice) of the same molecule?
Answer: 194 ± 23 s

Question: What about the “Immobility time as compared with that” value (male ddy mice) of the same molecule?
Answer: shortened

Question: What about the “Immobility time” value (male SD (IGS) rat) of the same molecule?
Answer: 163 ± 21 s

Question: And the “Immobility time as compared with that” value (male SD (IGS) rat)?
Answer: shortened

Question: And the “Inhibition (%)” value (male SD (IGS) rat)?
Answer: 31 ± 9 %

Question: What about the LD50 [1] of the same molecule?
Answer: ≥ 2000 mg/kg

Question: With `Cc1ccc(S(=O)(=O)N(CC(C)C)c2cc(C)c(C)cc2OCc2ccc(C(=O)O)cc2)o1` [Compound D, 4 [2-[N-isobutyl-N-(5-methyl-2-furylsulfonyl)amino]-4,5-dimethylphenoxymethyl]benzoic acid] as the molecule, how does the “Inhibition (%)” value (male ddy mice) read?
Answer: 27 ± 8 %

Question: What about the “Immobility time” value (male ddy mice) of the same molecule?
Answer: 217 ± 24 s

Question: And the “Immobility time as compared with that” value (male ddy mice)?
Answer: shortened

Question: With `Cc1ccc(S(=O)(=O)N(CC(C)C)c2cc(C)c(C)cc2OCc2ccc(C(=O)O)cc2C)o1` [Compound E, 3-methyl-4-[2-[N-isobutyl-N-(5-methyl-2-furylsulfonyl)amino]4,5-dimethylphenoxymethyl]benzoic acid] as the molecule, how does the “Inhibition (%)” value (male ddy mice) read?
Answer: 38 ± 12 %

Question: And the “Immobility time” value (male ddy mice)?
Answer: 185 ± 36 s

Question: And the “Immobility time as compared with that” value (male ddy mice)?
Answer: shortened

Question: What does the source list for `Cc1csc(S(=O)(=O)N(CC(C)C)c2cc3c(cc2OCc2ccc(C(=O)O)cc2)CCC3)n1` [Compound K, 4-[6-[N-isobutyl-N-(4-methyl-2-thizolylsulfonyl)amino]indan-5-yloxymethyl]benzoic acid]?
Answer: Immobility time (male SD (IGS) rat): 172 ± 17 s; Immobility time as compared with that in the vehicle treated group (male SD (IGS) rat): shortened; Inhibition (%) (male SD (IGS) rat): 29 ± 7 %

Question: Which “Inhibition (%)” value (male ddy mice) does the source give for `Cc1cc(Cl)ccc1S(=O)(=O)NC[C@H]1C2CCC(CC2)[C@H]1/C=C\CCCC(=O)O` [Compound A, 6-[(2S, 3S)-3-(4-chloro-2-methylphenylsulfonylaminomethyl)-bicyclo[2.2.2]octan-2-yl]-5Z-hexenoic acid] here?
Answer: 30 ± 7 %

Question: What about the “Immobility time” value (male ddy mice) of the same molecule?
Answer: 202 ± 20 s

Question: What about the “Immobility time as compared with that” value (male ddy mice) of the same molecule?
Answer: shortened

Question: Which results are given for `CCCN(c1cc(C)c(C)cc1OCc1ccc(C(=O)O)cc1)S(=O)(=O)c1ccc(C)o1` [Compound H, 4-[4,5-dimethyl-2-[N-(5-methyl-2-furylsulfonyl)-N-propylamino]phenoxymethyl]benzoic acid]?
Answer: Immobility time (male SD (IGS) rat): 156 ± 21 s; Immobility time as compared with that in the vehicle treated group (male SD (IGS) rat): shortened; Inhibition (%) (male SD (IGS) rat): 35 ± 9 %

Question: For `Cc1ccc(S(=O)(=O)N(CC(C)C)c2cc3c(cc2OCc2ccc(/C=C/C(=O)O)cc2)CCC3)o1` [Compound F, 4-[6-[N-isobutyl-N-(5-methyl-2-furylsulfonyl)amino]indan-5-yloxymethyl]cinnamic acid], which “Inhibition (%)” value (male ddy mice) is on record?
Answer: 47 ± 9 %

Question: And the “Immobility time” value (male ddy mice)?
Answer: 160 ± 26 s

Question: And the “Immobility time as compared with that” value (male ddy mice)?
Answer: shortened

Question: What does the source list for `Cc1ccc(C(=O)N(c2ccc(C(F)(F)F)cc2OCc2ccc(/C=C/C(=O)O)cc2)C(C)C)o1` [Compound J, 4-[5-trifluoromethyl-2-[N-(5-methyl-2-furylcarbonyl)-N-isopropylamino]phenoxymethyl]cinnamic acid]?
Answer: Immobility time (male SD (IGS) rat): 194 ± 16 s; Immobility time as compared with that in the vehicle treated group (male SD (IGS) rat): shortened; Inhibition (%) (male SD (IGS) rat): 20 ± 7 %

Question: Which “Immobility time” value (male SD (IGS) rat) does the source give for `CNCCCN1c2ccccc2CCc2ccccc21` [Desipramine, desipramine, reference compound] here?
Answer: 112 ± 15 s

Question: And the “Inhibition (%)” value (male SD (IGS) rat)?
Answer: 53 ± 6 %
